From article PMC7943464, “Dim Red Light During Scotophase Enhances Mating of a Moth Through Increased Male Antennal Sensitivity Against the Female Sex Pheromone” (Frontiers in Genetics, 2021) come the findings set out here.

The target in the assay is T1, CpunOBP2 (Conogethes punctiferalis, UniProt A0A0C4K8H3).
T1 construct: gene OBP2; pET-32a(+) in E. coli BL21(DE3); Ni-IDA purified; tags removed by enterokinase
T1 sequence (A0A0C4K8H3 23-151): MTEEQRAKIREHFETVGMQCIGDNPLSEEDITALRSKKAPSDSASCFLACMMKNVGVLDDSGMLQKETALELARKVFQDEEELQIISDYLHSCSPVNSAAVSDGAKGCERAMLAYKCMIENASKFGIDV
The assay is described as follows: competitive 1-NPN fluorescence displacement. The class given is binding. From the text: competitive 1-NPN fluorescence displacement on CpunOBP2
On to `CCCCC/C=C/CCCCCCCCC=O` [E10-16∶Ald, (E)-10-hexadecenal], for which the IC50 (usually the midpoint of a concentration-inhibition curve) was found to be 9.55 ± 4.58 µM and the affinity corresponds to a Ki of 8.48 ± 4.06 µM.
On the same counts, the results for `CC/C=C\C/C=C\C/C=C\CCCCCCCCCCCCC` [Z3, Z6, Z9-23∶HC, (Z3, Z6, Z9)-tricosatriene] are 4.14 ± 2.63 µM and 3.68 ± 2.33 µM.
The like results for `CCCCC/C=C\CCCCCCCCC=O` [Z10-16∶Ald, (Z)-10-hexadecenal] were, in that order, 7.73 ± 2.82 µM and 6.86 ± 2.5 µM.
